# Laboratory results taken from PubChem BioAssay AID588807 (The Scripps Research Institute Molecular Screening Center, 2011).
# The source made the active and inactive calls. How the calls were made is not given here.
# Legend:
# Assay in all cases: competitive ABPP of Abhd10 versus anti-targets – biochemical, fluorescence, gel-based, mouse proteome, selectivity assay for PME-1 inhibitor project, late-stage follow-up (AID 588807)
# Magl = settings: anti-target, stronger effect = higher value
# [1] = molecular target: Palmitoyl-protein thioesterase ABHD10, mitochondrial (Mus musculus) (UniProt Q6PE15); settings: stronger effect = higher value
# Chain of Palmitoyl-protein thioesterase ABHD10, mitochondrial (Mus musculus) (Q6PE15 whole entry, looked up): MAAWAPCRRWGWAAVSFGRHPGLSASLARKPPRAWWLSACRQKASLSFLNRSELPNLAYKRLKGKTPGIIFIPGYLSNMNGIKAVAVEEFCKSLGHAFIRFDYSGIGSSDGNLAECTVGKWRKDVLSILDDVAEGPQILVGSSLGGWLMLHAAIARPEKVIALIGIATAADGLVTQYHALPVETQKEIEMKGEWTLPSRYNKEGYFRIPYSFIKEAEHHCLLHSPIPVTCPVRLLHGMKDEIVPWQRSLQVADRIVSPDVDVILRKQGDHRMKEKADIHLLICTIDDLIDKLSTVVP
# [2] = molecular target: Prolyl endopeptidase (Mus musculus) (UniProt Q9QUR6); settings: PREP, anti-target, stronger effect = higher value
# Chain of Prolyl endopeptidase (Mus musculus) (Q9QUR6 whole entry, looked up): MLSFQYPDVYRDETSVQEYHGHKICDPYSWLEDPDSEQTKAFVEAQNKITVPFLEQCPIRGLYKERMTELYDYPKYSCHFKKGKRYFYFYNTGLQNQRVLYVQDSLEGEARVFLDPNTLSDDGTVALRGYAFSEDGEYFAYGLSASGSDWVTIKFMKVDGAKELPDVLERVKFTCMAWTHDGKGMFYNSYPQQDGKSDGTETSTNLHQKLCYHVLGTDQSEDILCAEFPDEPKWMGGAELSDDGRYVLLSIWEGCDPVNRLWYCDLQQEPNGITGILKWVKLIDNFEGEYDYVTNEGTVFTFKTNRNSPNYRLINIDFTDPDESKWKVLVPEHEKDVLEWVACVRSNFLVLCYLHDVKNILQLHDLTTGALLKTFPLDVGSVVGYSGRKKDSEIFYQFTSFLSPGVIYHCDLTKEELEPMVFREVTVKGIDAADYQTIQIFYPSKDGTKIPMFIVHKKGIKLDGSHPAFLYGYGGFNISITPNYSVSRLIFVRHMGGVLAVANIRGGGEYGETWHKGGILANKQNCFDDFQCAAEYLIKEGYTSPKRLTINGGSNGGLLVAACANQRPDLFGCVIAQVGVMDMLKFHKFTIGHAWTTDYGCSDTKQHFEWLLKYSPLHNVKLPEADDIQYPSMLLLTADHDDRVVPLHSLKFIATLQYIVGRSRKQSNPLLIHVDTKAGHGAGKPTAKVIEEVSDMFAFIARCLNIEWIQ
# [3] = molecular target: Monoacylglycerol lipase ABHD6 (Mus musculus) (UniProt Q8R2Y0); settings: anti-target, stronger effect = higher value
# Chain of Monoacylglycerol lipase ABHD6 (Mus musculus) (Q8R2Y0 whole entry, looked up): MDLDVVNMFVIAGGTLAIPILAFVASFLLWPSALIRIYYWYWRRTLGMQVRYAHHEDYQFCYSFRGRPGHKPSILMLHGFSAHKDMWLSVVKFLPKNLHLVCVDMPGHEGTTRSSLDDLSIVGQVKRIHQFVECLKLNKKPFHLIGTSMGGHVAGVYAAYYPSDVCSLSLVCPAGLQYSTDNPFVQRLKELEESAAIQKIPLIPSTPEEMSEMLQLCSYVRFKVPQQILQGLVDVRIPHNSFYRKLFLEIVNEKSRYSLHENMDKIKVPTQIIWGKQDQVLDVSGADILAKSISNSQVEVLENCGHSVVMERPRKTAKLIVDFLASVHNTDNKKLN
# Kiaa1363 = settings: anti-target, at 10 µM, stronger effect = higher value
# APEH = settings: anti-target, stronger effect = higher value
SMILES,inhibition (Magl; at 10 µM),inhibition ([1]; at 10 µM),"inhibition ([1]; inhibition, at 0.1 µM) [%]","inhibition ([1]; inhibition, at 1 µM) [%]",inhibition ([2]; at 10 µM),"inhibition ([2]; inhibition, at 1 µM) [%]",inhibition ([3]; at 10 µM),"inhibition ([3]; inhibition, at 1 µM) [%]",inhibition (Kiaa1363),inhibition (APEH; at 10 µM),"inhibition (APEH; inhibition, at 0.1 µM) [%]","inhibition (APEH; inhibition, at 1 µM) [%]","inhibition (Magl; inhibition, at 1 µM) [%]"
CCOC(=O)N1C(=O)[C@@](CC)(c2ccccc2)N1C(=O)OCC,0% (inactive),100%,75,100,90% (inactive),20,65% (inactive),15,0% (inactive),55% (inactive),,,
CC[C@@]1(c2cccc(C)c2)C(=O)N(C(=O)OCc2ccccc2)N1C(=O)OCc1ccccc1,0% (inactive),95% (inactive),20,65,90% (inactive),,35% (inactive),10,75% (inactive),0% (inactive),,,
CC[C@@]1(c2cccc(C)c2)C(=O)N(C(=O)OC(C)C)N1C(=O)OC,0% (inactive),60% (inactive),10,25,30% (inactive),10,0% (inactive),,0% (inactive),0% (inactive),,,
CC[C@@]1(c2cccc(F)c2)C(=O)N(C(=O)OC)N1C(=O)OC,25% (inactive),95%,60,95,70% (inactive),15,25% (inactive),,0% (inactive),0% (inactive),,,
C=CCOC(=O)N1C(=O)[C@@](CC)(c2ccccc2)N1C(=O)OCC=C,50% (inactive),100% (inactive),30,90,70% (inactive),10,80% (inactive),,35% (inactive),55% (inactive),,,
CC[C@@]1(c2ccc(C)cc2)C(=O)N(C(=O)OC(C)C)N1C(=O)OC(C)C,0% (inactive),95%,90,90,75% (inactive),30,50% (inactive),,0% (inactive),15% (inactive),,,
CC[C@@]1(c2ccccc2)C(=O)N(C(=O)OC(C)C)N1C(=O)OC(C)C,0% (inactive),100%,70,90,70% (inactive),10,65% (inactive),,0% (inactive),85% (inactive),10,10,
CCCOC(=O)N1C(=O)C(CC)(c2cccc(C)c2)N1C(=O)OCCC (stereo not given),25% (inactive),100% (inactive),10,95,60% (inactive),20,70% (inactive),,0% (inactive),10% (inactive),,,10
CC[C@@]1(c2cccc(C)c2)C(=O)N(C(=O)OC(C)C)N1C(=O)OC(C)C,0% (inactive),100% (inactive),30,100,55% (inactive),20,70% (inactive),20,0% (inactive),75% (inactive),,,
CC[C@@]1(c2cccc(C)c2)C(=O)N(C(=O)OC)N1C(=O)OC,45% (inactive),100% (inactive),35,100,85% (inactive),20,50% (inactive),,35% (inactive),50% (inactive),,,
CC[C@@]1(c2cccc(C)c2)C(=O)N(C(=O)OCC(Cl)(Cl)Cl)N1C(=O)OCC(Cl)(Cl)Cl,0% (inactive),20% (inactive),,,10% (inactive),,0% (inactive),,0% (inactive),0% (inactive),,,
Cc1cccc([C@]2(C)C(=O)N(C(=O)OCc3ccccc3)N2C(=O)OCc2ccccc2)c1,0% (inactive),15% (inactive),,,0% (inactive),,0% (inactive),,0% (inactive),0% (inactive),,,
Cc1cccc([C@]2(C)C(=O)N(C(=O)OC(C)C)N2C(=O)OC(C)C)c1,10% (inactive),100%,55,95,40% (inactive),,0% (inactive),,0% (inactive),25% (inactive),,,
CCOC(=O)N1C(=O)[C@@](CC)(c2ccc(C)cc2)N1C(=O)OCC,60% (inactive),100%,60,95,65% (inactive),,55% (inactive),,25% (inactive),0% (inactive),,,
C=CCOC(=O)N1C(=O)[C@@](CC)(c2cccc(C)c2)N1C(=O)OCC=C,50% (inactive),90% (inactive),35,85,65% (inactive),10,75% (inactive),,20% (inactive),20% (inactive),,,
C=CCOC(=O)N1C(=O)[C@@](CC)(c2ccccc2)N1C(=O)OC,0% (inactive),90% (inactive),10,70,25% (inactive),,35% (inactive),10,10% (inactive),40% (inactive),,,
CC[C@@]1(c2cccc(F)c2)C(=O)N(C(=O)OC(C)C)N1C(=O)OC(C)C,10% (inactive),90% (inactive),40,85,0% (inactive),,0% (inactive),,15% (inactive),100% (inactive),,20,
